Source: patent US20250223259A1, “PROTEASE INHIBITORS FOR TREATING OR PREVENTING CORONAVIRUS INFECTION” (Merck Sharp & Dohme LLC, priority 2022, published 2025)

molecular target: SARS2 coronavirus 3CL protease (Severe acute respiratory syndrome coronavirus 2 (2019-nCoV) (SARS-CoV-2), UniProt P0DTD1); experiment: SARS2 Coronavirus 3CL Protease Assay (FRET); assay type: biochemical; conditions: SARS2 3CLPro FRET assay; 5 nM enzyme, 30 min pre-incubation with compound, 15 uM peptide substrate, 4 h room temperature
Protocol: The enzymatic activity of SARS2 coronavirus 3CL protease was determined in a FRET (fluorescence resonance energy transfer)-based assay measuring the cleavage of a peptide substrate by recombinantly expressed and purified enzyme. Cleavage of the peptide SEQ ID NO:1 (CPC Scientific) by SARS2 3CL protease was measured in reaction buffer (50 mM Hepes pH 7.5, 0.01% Triton X-100, 0.01% BSA, 2 mM DTT). SARS2 3CL protease (5 nM final concentration) was pre-incubated with compound for 30 minutes before reaction initiation with peptide substrate (15 uM final concentration). Room temperature reactions (4 h) were quenched by addition of a high dose of inhibitor and read on an appropriate plate reader (excitation wavelength=495 nm, emission wavelength=520 nm). Data were analyzed by a standard 4 parameter fit to determine IC50 values.

SMILES | IC50 [nM]
COC(=O)N[C@H](C(=O)N1CCCC(C)C1C(=O)N[C@@H](CCC(C)(F)F)C(=O)C(=O)NC1CC1)C(C)(C)C (single isomer, unassigned) [Example 49, Methyl ((S)-1-((2(R or S),3(R or S))-2-(((S)-1-(cyclopropylamino)-6,6-difluoro-1,2-dioxoheptan-3-yl)carbamoyl)-3-methylpiperidin-1-yl)-3,3-dimethyl-1-oxobutan-2-yl)carbamate] | 60
COC(=O)N[C@H](C(=O)N1CCC2(CC2)C[C@H]1C(=O)N[C@@H](CCC(C)(F)F)C(=O)C(=O)NC1CC1)C(C)(C)C [Example 29, Methyl ((S)-1-((S)-5-(((S)-1-(cyclopropylamino)-6,6-difluoro-1,2-dioxoheptan-3-yl)carbamoyl)-6-azaspiro[2.5]octan-6-yl)-3,3-dimethyl-1-oxobutan-2-yl)carbamate] | 7.7
COC(=O)N[C@H](C(=O)N1C[C@H]2[C@@H]([C@H]1C(=O)N[C@@H](CCC(C)(F)F)C(=O)C(=O)NC1CC1)C21CCOCC1)C(C)(C)C [Example 60, Methyl ((S)-1-((1R,2S,5S)-2-(((S)-1-(cyclopropylamino)-6,6-difluoro-1,2-dioxoheptan-3-yl)carbamoyl)tetrahydro-3-azaspiro[bicyclo[3.1.0]hexane-6,4′-pyran]-3-yl)-3,3-dimethyl-1-oxobutan-2-yl)carbamate] | 19
COC(=O)N[C@H](C(=O)N1CC(C)CCC1C(=O)N[C@@H](CCC(C)(F)F)C(=O)C(=O)NC1CC1)C(C)(C)C (single isomer, unassigned) [Example 30, Methyl ((S)-1-(2(R or S), 5(R or S)-(((S)-1-(cyclopropylamino)-6,6-difluoro-1,2-dioxoheptan-3-yl)carbamoyl)-5-methylpiperidin-1-yl)-3,3-dimethyl-1-oxobutan-2-yl)carbamate] | 40
CNC(=O)C(=O)[C@H](CCC(C)(F)F)NC(=O)C1C2CC(F)(F)CC2CN1C(=O)[C@@H](NC(=O)OC)C(C)(C)C (single isomer, unassigned) [Example 105, methyl ((S)-1-((1S,3aR,6aS or 1R,3aS,6aR or 1S,3aS,6aR or 1R,3aR,6aS)-1-(((S)-6,6-difluoro-1-(methylamino)-1,2-dioxoheptan-3-yl)carbamoyl)-5,5-difluorohexahydrocyclopenta[c]pyrrol-2(1H)-yl)-3,3-dimethyl-1-oxobutan-2-yl)carbamate] | 11
CNC(=O)C(=O)[C@H](CCC(C)(F)F)NC(=O)C1CC(C)(F)CCN1C(=O)[C@@H](NC(=O)OC)C(C)(C)C (single isomer, unassigned) [Example 97, methyl ((S)-1-((2S,4S or 2R,4R)-2-(((S)-6,6-difluoro-1-(methylamino)-1,2-dioxoheptan-3-yl)carbamoyl)-4-fluoro-4-methylpiperidin-1-yl)-3,3-dimethyl-1-oxobutan-2-yl)carbamate] | 19
COC(=O)N[C@H](C(=O)N1CCC(OC(F)F)CC1C(=O)N[C@@H](CCC(C)(F)F)C(=O)C(=O)NC1CC1)C(C)(C)C (single isomer, unassigned) [Example 109, methyl ((S)-1-((2R,4R or 2S,4S)-2-(((S)-1-(cyclopropylamino)-6,6-difluoro-1,2-dioxoheptan-3-yl)carbamoyl)-4-(difluoromethoxy)piperidin-1-yl)-3,3-dimethyl-1-oxobutan-2-yl)carbamate] | 50
COC(=O)N[C@H](C(=O)N1CC(C(F)(F)F)CCC1C(=O)N[C@@H](CCC(C)(F)F)C(=O)C(=O)NC1CC1)C(C)(C)C (single isomer, unassigned) [Example 82, methyl ((S)-1-((2S,5S or 2R,5R)-2-(((S)-1-(cyclopropylamino)-6,6-difluoro-1,2-dioxoheptan-3-yl)carbamoyl)-5-(trifluoromethyl)piperidin-1-yl)-3,3-dimethyl-1-oxobutan-2-yl)carbamate] | 51
COC(=O)N[C@H](C(=O)N1CCC2CC2[C@H]1C(=O)N[C@@H](CCC(C)(F)F)C(=O)C(=O)NC1CC1)C(C)(C)C (single isomer, unassigned) [Example 83, methyl ((S)-1-((1R,2S,6R or 1R,2S,6S)-2-(((S)-1-(cyclopropylamino)-6,6-difluoro-1,2-dioxoheptan-3-yl)carbamoyl)-3-azabicyclo[4.1.0]heptan-3-yl)-3,3-dimethyl-1-oxobutan-2-yl)carbamate] | 83
[2H]C([2H])([2H])NC(=O)C(=O)[C@H](CCC(C)(F)F)NC(=O)C1CC(C(F)(F)F)CCN1C(=O)[C@@H](NC(=O)OC([2H])([2H])[2H])C(C)(C)C (single isomer, unassigned) [Example 100, methyl-d3 ((S)-1-((2(S or R),4(S or R))-2-(((S)-6,6-difluoro-1-((methyl-d3)amino)-1,2-dioxoheptan-3-yl)carbamoyl)-4-(trifluoromethyl)piperidin-1-yl)-3,3-dimethyl-1-oxobutan-2-yl)carbamate] | 14
COC(=O)N[C@H](C(=O)N1CCC2(CCC2)CC1C(=O)N[C@@H](CCC(C)(F)F)C(=O)C(=O)NC1CC1)C(C)(C)C (single isomer, unassigned) [Example 41, Methyl ((S)-1-((R or S)-(6-(((S)-1-(cyclopropylamino)-6,6-difluoro-1,2-dioxoheptan-3-yl)carbamoyl)-7-azaspiro[3.5]nonan-7-yl)-3,3-dimethyl-1-oxobutan-2-yl)carbamate] | 13
COC(=O)N[C@H](C(=O)N1C[C@@H]2CCC[C@@H]2[C@H]1C(=O)N[C@@H](CCC(C)(F)F)C(=O)C(=O)NCC(F)(F)F)C(C)(C)C [Example 119, methyl ((S)-1-((1S,3aR,6aS)-1-(((S)-6,6-difluoro-1,2-dioxo-1-((2,2,2-trifluoroethyl)amino)heptan-3-yl)carbamoyl)hexahydrocyclopenta[c]pyrrol-2(1H)-yl)-3,3-dimethyl-1-oxobutan-2-yl)carbamate] | 77
CNC(=O)C(=O)[C@H](CCC(C)(F)F)NC(=O)[C@@H]1CC2(CCN1C(=O)[C@@H](NC(=O)OC)C(C)(C)C)CC2 [Example 21, Methyl ((S)-1-((S)-5-(((S)-6,6-difluoro-1-(methylamino)-1,2-dioxoheptan-3-yl)carbamoyl)-6-azaspiro[2.5]octan-6-yl)-3,3-dimethyl-1-oxobutan-2-yl)carbamate] | 6.5
CC(C)OC(=O)N[C@H](C(=O)N1CC2(CCCCC2)C[C@H]1C(=O)N[C@@H](CCC(C)(F)F)C(=O)C(=O)NC1CC1)C1CCCCC1 [Example 50, Isopropyl ((S)-1-cyclohexyl-2-((S)-3-(((S)-1-(cyclopropylamino)-6,6-difluoro-1,2-dioxoheptan-3-yl)carbamoyl)-2-azaspiro[4.5]decan-2-yl)-2-oxoethyl)carbamate] | 62
CCNC(=O)C(=O)[C@H](CCC(C)(F)F)NC(=O)[C@@H]1[C@H]2CCC[C@H]2CN1C(=O)[C@@H](NC(=O)OC)C(C)(C)C [Example 101, methyl ((S)-1-((1S,3aR,6aS)-1-(((S)-1-(ethylamino)-6,6-difluoro-1,2-dioxoheptan-3-yl)carbamoyl)hexahydrocyclopenta[c]pyrrol-2(1H)-yl)-3,3-dimethyl-1-oxobutan-2-yl)carbamate] | 22
COC(=O)N[C@H](C(=O)N1C[C@H](OC(F)(F)F)C(C)(C)[C@H]1C(=O)N[C@@H](CCC(C)(F)F)C(=O)C(=O)NC1CC1)C(C)(C)C [Example 48, Methyl ((S)-1-((2S,4R)-2-(((S)-1-(cyclopropylamino)-6,6-difluoro-1,2-dioxoheptan-3-yl)carbamoyl)-3,3-dimethyl-4-(trifluoromethoxy)pyrrolidin-1-yl)-3,3-dimethyl-1-oxobutan-2-yl)carbamate] | 45
CNC(=O)C(=O)[C@H](CCC(C)(F)F)NC(=O)[C@@H]1[C@H]2CCC[C@H]2CN1C(=O)[C@@H](NC(=O)OCC(F)F)C(C)(C)C [Example 121, 2,2-difluoroethyl ((S)-1-((1S,3aR,6aS)-1-(((S)-6,6-difluoro-1-(methylamino)-1,2-dioxoheptan-3-yl)carbamoyl)hexahydrocyclopenta[c]pyrrol-2(1H)-yl)-3,3-dimethyl-1-oxobutan-2-yl)carbamate] | 15
COC(=O)N[C@H](C(=O)N1CCCCC1C(=O)N[C@@H](CCC(C)(F)F)C(=O)C(=O)NC1CC1)C(C)(C)C (single isomer, unassigned) [Example 55, Methyl ((S)-1-((S or R)-2-(((S)-1-(cyclopropylamino)-6,6-difluoro-1,2-dioxoheptan-3-yl)carbamoyl)piperidin-1-yl)-3,3-dimethyl-1-oxobutan-2-yl)carbamate: methyl ((S)-1-((R or S)-2-(((S)-1-(cyclopropylamino)-6,6-difluoro-1,2-dioxoheptan-3-yl)carbamoyl)piperidin-1-yl)-3,3-dimethyl-1-oxobutan-2-yl)carbamate] | 239
COC(=O)N[C@H](C(=O)N1CC(F)(F)CC[C@H]1C(=O)N[C@@H](CCC(C)(F)F)C(=O)C(=O)NC1CC1)C(C)(C)C [Example 104, methyl ((S)-1-((S)-2-(((S)-1-(cyclopropylamino)-6,6-difluoro-1,2-dioxoheptan-3-yl)carbamoyl)-5,5-difluoropiperidin-1-yl)-3,3-dimethyl-1-oxobutan-2-yl)carbamate] | 740
COCCNC(=O)C(=O)[C@H](CCC(C)(F)F)NC(=O)[C@@H]1[C@H]2CCC[C@H]2CN1C(=O)[C@@H](NC(=O)OC)C(C)(C)C [Example 102, methyl ((S)-1-((1S,3aR,6aS)-1-(((S)-6,6-difluoro-1-((2-methoxyethyl)amino)-1,2-dioxoheptan-3-yl)carbamoyl)hexahydrocyclopenta[c]pyrrol-2(1H)-yl)-3,3-dimethyl-1-oxobutan-2-yl)carbamate] | 61
CNC(=O)C(=O)[C@H](CCC(C)(F)F)NC(=O)C1CC2(CCC2)CN1C(=O)[C@@H](NC(=O)OC)C(C)(C)C (single isomer, unassigned) [Example 44, Methyl ((S)-1-((R or S)-7-(((S)-6,6-difluoro-1-(methylamino)-1,2-dioxoheptan-3-yl)carbamoyl)-6-azaspiro[3.4]octan-6-yl)-3,3-dimethyl-1-oxobutan-2-yl)carbamate] | 27
